Source: article PMC10534582, “A Pharmacokinetic Study of Sixteen Major Bioactive Components of Jinshui-Huanxian Granules in Pulmonary Fibrosis Model and Control Rats Using Orbitrap Fusion Mass Spectrometry” (Molecules, 2023)
Read-outs that look alike come from different tables or passages of the source.

How the values were obtained:
[1] = after oral administration; cited from earlier work
[2] = Pharmacokinetics of JHG components in pulmonary fibrosis (PF) model rats after intragastric administration of JHGs (plasma, Orbitrap Fusion MS); format: in vivo, Sprague Dawley (SD) rats; settings: for Cmax, PF model group compared with the control group: medium dose selected for comparison; for AUCs, PF model group compared with the control group: p < 0.05; for half-life / MRT last / Tmax / Cmax / AUC(0-inf) / AUC(0-t) / MRT inf: male, rat, plasma, po; for MRT last: read-out: MRT(0-t); for Cmax: intragastric JHGs; for MRT inf: read-out: MRT(0-∞); for pharmacokinetic process (versus dosage): low, medium, high doses of JHGs
Experimental: Healthy male Sprague Dawley (SD) rats of SPF grade (240 ± 20 g) were purchased from Sipeifu (Beijing, China) Biotechnology Co., Ltd. (Beijing, China), Certificate of Conformity No.: SCYK (Beijing, China) 2019-0015, Animal Quality Certificate No.: 110324220102348616. They were housed in the Animal Center of Henan University of Traditional Chinese Medicine, which passed the ethical audit, ethics number: DWLL202208003, breeding Co. 24 °C, relative humidity 50 ± 2%. The animals fasted for 12 h before the experiment and drank water freely. All feeding and experimental studies on experimental animals were in accordance with the regulations on the Management of Experimental Animals in Henan Province.
The PF model in rats was replicated by reference to the conclusion tracheal intubation method in the literature. After the rats were anesthetized, bleomycin (BLM) (5 mg/kg) was used as an induction agent and followed the tracheal intubation method. BLM solution was aspirated with a 1 mL syringe and injected into the indwelling syringe. A total of 0.3 mL of air was rapidly pushed into the syringe, the rats were immediately stroked upright so that the BLM solution was evenly distributed in both lungs. BLM was given on day 0 for modeling, then gavage was taken after day 28, with fasting without water for 12 h before sampling. The histopathological examination was performed to verify the construction of the PF model. The rats were anesthetized by the abdominal cavity, then the lung tissues were violently shocked by opening the chest, and the right lower lobe of the lung was taken and fixed in 4% formaldehyde solution, then dehydrated by sucrose gradient, paraffin-embedded, and sectioned. H&E and Masson staining were performed to observe the degree of alveolitis of lung tissue and the degree of pulmonary fibrosis, respectively. The inflammation and fibrosis of lung tissues was observed under the light microscope.
Twenty-four healthy male SD rats or PF model rats, weighing 240 ± 20 g, fasted for 12 h before the experiment and drank water freely. Both kinds of rats were randomly divided into four groups. Blank group: equal dose of water by intragastric, low dose; administration group: rats were given the equivalent human dose of JHGs by intragastric, i.e., 10.8 g of raw drug/kg/d (5.70 g/kg/d); medium-dose administration group: 2 times the human equivalent dose of JHGs by intragastric, i.e., 21.6 g of raw drug/kg/d (11.41 g/kg/d); high-dose administration group: 4 times the human equivalent dose of JHG, i.e., 43.2 g of raw drug/kg/d (22.81 g/kg/d). Blood was collected from the tail vein before and 0.083, 0.25, 0.5, 0.75, 1, 1.5, 2, 3, 4, 6, 8, 12, 18, and 24 h after dosing, respectively. A total of 0.5 mL was placed in a heparin sodium centrifuge tube. Whole blood was left for 30 min and then centrifuged in a low-temperature freezing centrifuge (4 °C, 3000 r/min) for 15 min. The upper layer of plasma was collected and stored in a refrigerator at −80 °C.
We added 50 μL of internal standard solution and 800 μL of methanol, shook for 15 min, then centrifuged at 12,000 r/min for 10 min, took the supernatant, dried in a centrifuge concentrator, added 50 μL of the initial mobile phase to the residue, dissolved, centrifuged, then separated the upper layer of the solution used as the test solution. A total of 5 μL test solution was taken into the sample for analysis. For each compound with a certain dosage, the same procedure is repeated six times in parallel. The concentration in plasma was calculated by the internal standard method.
Accucore C18 (100 mm × 2.1 mm, 2.6 μm) column at 25 °C, the mobile phase was methanol (A)-0.1% formic acid aqueous solution (B). The gradient elution program was 0–4 min (65% B-40% B), 4–5 min (40% B-40% B), 5–6 min (40% B-28% B), and 6–7 min (28% B-19% B), 7–7.5 min (19% B-10% B), 7.5–11 min (10% B-0% B), the flow rate was 0.2 mL/min, and the injection volume was 5 μL. […]

[3] = PF model rats, JHGs high dose 22.81 g/kg/d
[4] = PF model rats, JHGs low dose 5.70 g/kg/d
[5] = PF model rats, JHGs medium dose 11.41 g/kg/d
[6] = Sprague Dawley, 5.7 g/kg/day, PF model rats, JHGs low dose 5.70 g/kg/d
[7] = Sprague Dawley, 5.7 g/kg/day, PF model rats, JHGs low dose 5.70 g/kg/d, read-out: Tmax
[8] = Sprague Dawley, 5.7 g/kg/day, PF model rats, low dose 5.70 g/kg/d, n=6 (1st of 3 stacked values)
[9] = Sprague Dawley, 11.41 g/kg/day, PF model rats, JHGs medium dose 11.41 g/kg/d
[10] = Sprague Dawley, 11.41 g/kg/day, PF model rats, JHGs medium dose 11.41 g/kg/d, read-out: Tmax
[11] = Sprague Dawley, 11.41 g/kg/day, PF model rats, medium dose 11.41 g/kg/d, n=6 (2nd of 3 stacked values)
[12] = Sprague Dawley, 22.81 g/kg/day, PF model rats, JHGs high dose 22.81 g/kg/d
[13] = Sprague Dawley, 22.81 g/kg/day, PF model rats, JHGs high dose 22.81 g/kg/d, read-out: Tmax
[14] = Sprague-Dawley, 5.7 g/kg/day, PF model rats, JHGs low dose 5.70 g/kg/d
[15] = Sprague-Dawley, 11.41 g/kg/day, PF model rats, JHGs medium dose 11.41 g/kg/d
[16] = Sprague-Dawley, 22.81 g/kg/day, PF model rats, JHGs high dose 22.81 g/kg/d
[17] = Sprague-Dawley, 22.81 g/kg/day, PF model rats, high dose 22.81 g/kg/d, n=6 (3rd of 3 stacked values)
[18] = Sprague-Dawley, PF model rats, after administration of JHGs, read-out: Tmax of all dosages

Row | Clearances [2, 3] [mL/min/kg] | Vss [2, 3] [L] | Clearances [2, 4] [mL/min/kg] | Vss [2, 4] [L] | Clearances [2, 5] [mL/min/kg] | Vss [2, 5] [L] | half-life [2, 6] [h] | MRT last [2, 6] [h] | Tmax [2, 7] [h] | Cmax [2, 8] [ng/mL] | half-life [2, 9] [h] | MRT last [2, 9] [h] | Tmax [2, 10] [h] | Cmax [2, 11] [ng/mL] | half-life [2, 12] [h] | Tmax [2, 13] [h] | AUC(0-inf) [2, 14] [ng·h/mL] | AUC(0-t) [2, 14] [ng·h/mL] | MRT inf [2, 14] [h] | AUC(0-inf) [2, 15] [ng·h/mL] | Structure (SMILES) | further results
1 | 4714 ± 1513 | 12017.41 ± 3866.6 | 1560 ± 427.7 | 2980.29 ± 449.33 | 5269.7 ± 1130 | 8115.77 ± 895.52 | 25.5 ± 8.84 | 9.14 ± 0.1 | 0.5 | 2.79 ± 0.6 | 19.2 ± 6.63 | 9.7 ± 0.37 | 0.75 | 3.16 ± 0.22 | 36.4 ± 25.6 | 3 | 41.8 ± 12.1 | 21.8 ± 2.86 | 33.8 ± 11.4 | 41.6 ± 9.78 | COc1ccc(C(C)=O)c(O)c1 [Paeonol] | bioavailability in vivo [1]: poor; Cmax, PF model group compared with the control group ([2]; PF model vs control rats): significantly decreased; AUCs, PF model group compared with the control group ([2]; PF model vs control rats): significantly decreased; AUC(0-t) [2, 15]: 24.5 ± 2.15 ng·h/mL; MRT inf [2, 15]: 26.9 ± 8.95 h; AUC(0-inf) [2, 16]: 83.4 ± 34.3 ng·h/mL; AUC(0-t) [2, 16]: 35 ± 1.86 ng·h/mL; MRT last [2, 16]: 9.41 ± 0.4 h; MRT inf [2, 16]: 49.6 ± 33.3 h; Cmax [2, 17]: 3.63 ± 0.33 ng/mL; Tmax [2, 18]: ≤ 2 h
2 | 1307 ± 264.2 | 864 ± 195.9 | 119 ± 11.8 | 166.86 ± 26.65 | 327.5 ± 83.7 | 769.75 ± 168.2 | 17.6 ± 1.82 | 8.86 ± 0.2 | 0.75 | 2.97 ± 0.67 | 31.5 ± 13.3 | 9.13 ± 0.25 | 0.75 | 3.37 ± 0.53 | 9.59 ± 3.39 | 0.75 | 33.4 ± 4.41 | 21.6 ± 3.48 | 23.2 ± 2.12 | 43.1 ± 11.1 | COc1ccc(-c2cc(=O)c3c(OC)c(OC)c(OC)c(OC)c3o2)cc1OC [Nobiletin] | AUC(0-t) [2, 15]: 20 ± 2.62 ng·h/mL; MRT inf [2, 15]: 41.8 ± 18.4 h; AUC(0-inf) [2, 16]: 18 ± 3.39 ng·h/mL; AUC(0-t) [2, 16]: 15.5 ± 2.99 ng·h/mL; MRT last [2, 16]: 6.66 ± 0.35 h; MRT inf [2, 16]: 11.1 ± 1.44 h; Cmax [2, 17]: 3.57 ± 0.3 ng/mL; Tmax [2, 18]: ≤ 2 h
3 |  |  |  |  |  |  |  |  |  |  |  |  |  |  |  |  |  |  |  |  | O=c1cc(-c2ccc(O)cc2)oc2cc(OC3OC(CO)C(O)C(O)C3O)cc(O)c12 (stereo not shown) [Apigenin-7-glucoside] | Tmax, PF model group compared with the control group ([2]; PF model vs control rats): decreased significantly; Cmax, PF model group compared with the control group ([2]; PF model vs control rats): significantly decreased; AUCs, PF model group compared with the control group ([2]; PF model vs control rats): significantly decreased; Tmax [2, 18]: ≤ 2 h
4 |  |  |  |  |  |  |  |  |  |  |  |  |  |  |  |  |  |  |  |  | O=c1cc(-c2ccc(O)c(O)c2)oc2cc(O[C@@H]3O[C@H](CO)[C@@H](O)[C@H](O)[C@H]3O)cc(O)c12 [Cynaroside] | Cmax and AUCs (AUC(0–t), AUC (0–∞)) compared among the analytes ([2]; PF model rats): highest; correlation between CL, AUC, t½, and dose ([2]; PF model rats): there was a correlation; pharmacokinetic process (versus dosage) ([2]; PF model rats): linear pharmacokinetic process; AUC(0–t) in the model group relative to the control group ([2]; PF model vs control rats): approximately twice as high; Cmax in the model group relative to the control group ([2]; PF model vs control rats): approximately twice as high

Row | Structure (SMILES) | Clearances [2, 3] [mL/min/kg] | Vss [2, 3] [L] | Clearances [2, 4] [mL/min/kg] | Vss [2, 4] [L] | Clearances [2, 5] [mL/min/kg] | Vss [2, 5] [L] | half-life [2, 6] [h] | MRT last [2, 6] [h] | Tmax [2, 7] [h] | Cmax [2, 8] [ng/mL] | half-life [2, 9] [h] | MRT last [2, 9] [h] | Tmax [2, 10] [h] | Cmax [2, 11] [ng/mL] | half-life [2, 12] [h] | Tmax [2, 13] [h] | AUC(0-inf) [2, 14] [ng·h/mL] | AUC(0-t) [2, 14] [ng·h/mL] | MRT inf [2, 14] [h] | AUC(0-inf) [2, 15] [ng·h/mL] | further results
5 | CC1=C2CC3C(CC(=O)C4CC(O)CCC43C)C2CCC12OC1CC(C)CNC1C2C (stereo not shown) [Peimisine] | 5.83 ± 1 | 4.24 ± 0.61 | 2.33 ± 0.33 | 1.62 ± 0.32 | 4.33 ± 0.83 | 2.91 ± 0.52 | 7.2 ± 0.28 | 7.56 ± 0.17 | 1.5 | 2.05 ± 0.49 | 8.25 ± 0.94 | 7.92 ± 0.2 | 3.67 ± 0.58 | 2.51 ± 0.55 | 5.96 ± 0.23 | 8 | 14.6 ± 2.48 | 12.3 ± 2.23 | 11.8 ± 0.51 | 26.8 ± 5.8 | pharmacokinetic process (versus dosage) ([2]; PF model rats): linear pharmacokinetic process; MRT(0–t), PF model group compared with the control group ([2]; PF model vs control rats): decreased; AUC(0-t) [2, 15]: 23.4 ± 5.01 ng·h/mL; MRT inf [2, 15]: 11.4 ± 1.05 h; AUC(0-inf) [2, 16]: 33.1 ± 6.82 ng·h/mL; AUC(0-t) [2, 16]: 29.7 ± 5.82 ng·h/mL; MRT last [2, 16]: 9.84 ± 0.24 h; MRT inf [2, 16]: 12.2 ± 0.39 h; Cmax [2, 17]: 2.76 ± 0.48 ng/mL
